Source: patent US10646466B2, “Uses of gallocatechin” (TCI CO., LTD., priority 2017, dated 2020)

Experiments:
Assay type in all cases: cell-based
Details in all cases: 0.0625 μg/ml, 24 hours, control set as 1-fold
TPH1 gene = experiment: qPCR expression level of TPH1 gene in SHSY5Y cells
Method: (§1) SHSYSY cells were seeded in a 6-well plate (1×10^5 cells/well) and then cultured for 24 hours. Thereafter, cells were divided into the control group and experimental group and were separately cultured in the following medium for 24 hours: • 1. Control group: DMEM medium; • 2. Experimental group: a medium the same as that of the control group, but additionally added with 0.0625 μg/ml of the compound of formula (I). Thereafter, cells of the above groups were harvested and subjected to an RNA extraction with an RNA Extract Kit. The RNA thus obtained was then transcribed into cDNA by using a Reverse Transcriptase. Thereafter, the cDNA was subjected to a quantitative polymerase chain reaction (qPCR) by using a Step One Plus system and a KAPA SYBR FAST qPCR kit to determine the expression levels of genes related to melatonin (including TPH1, DDC, AANAT and ASMTL) in the cells of each group. The above experimental steps were repeated three times, and then the results of the three experiments were averaged. Thereafter, the result of the control group was used as a basis (i.e., the gene expression level of the control group was set as 1-fold) to calculate the relative gene expression level of the experimental group.

DDC gene = experiment: qPCR expression level of DDC gene in SHSY5Y cells
Method: as §1

AANAT gene = experiment: qPCR expression level of AANAT gene in SHSY5Y cells
Method: as §1

ASMTL gene = experiment: qPCR expression level of ASMTL gene in SHSY5Y cells
Method: as §1

Oc1cc(O)c2c(c1)O[C@H](c1cc(O)c(O)c(O)c1)[C@@H](O)C2 [compound of formula (I), gallocatechin]
significantly increased: relative expression level of TPH1 gene as compared to the control group (TPH1 gene) | relative expression level of DDC gene as compared to the control group (DDC gene) | relative expression level of AANAT gene as compared to the control group (AANAT gene) | relative expression level of ASMTL gene as compared to the control group (ASMTL gene)
